Each block holds one compound with its values, some of them ahead of it.
What was measured:
[1] = Selectivity index, ratio of CC50 for mouse J774.A1 cells to ratio of IC50 for antitrypanosomal activity against bloodstream Trypanosoma cruzi INC-5 strain trypomastigotes; assay type: toxicity; conditions: read-out: Ratio CC50/IC50
Trypanosoma cruzi [2] = assay: Antitrypanosomal activity against bloodstream Trypanosoma cruzi INC-5 strain trypomastigotes assessed as parasite growth inhibition incubated for 24 hrs by microscopic analysis; assay type: functional
[3] = Selectivity index, ratio of CC50 for mouse J774.A1 cells to ratio of IC50 for antitrypanosomal activity against bloodstream Trypanosoma cruzi NINOA strain trypomastigotes; assay type: toxicity; conditions: read-out: Ratio CC50/IC50
Trypanosoma cruzi [4] = assay: Antitrypanosomal activity against bloodstream Trypanosoma cruzi NINOA strain trypomastigotes assessed as parasite growth inhibition incubated for 24 hrs by microscopic analysis; assay type: functional
Leishmania infantum [5] = assay: Antileishmanial activity against Leishmania infantum amastigotes assessed as inhibition of parasite growth; assay type: functional, organism-based
Leishmania infantum [6] = assay: Antileishmanial activity against Leishmania infantum MHOM/BR/74/PP75 strain promastigotes assessed as reduction in cell viability incubated for 48 hrs by MTT assay; assay type: functional, organism-based; conditions: MHOM/BR/74/PP75, 48 h
Leishmania braziliensis = assay: Antileishmanial activity against Leishmania braziliensis MHOM/BR/75/M2903 strain promastigotes assessed as reduction in cell viability incubated for 48 hrs by MTT assay; assay type: functional, organism-based; conditions: MHOM/BR/75/M2903, 48 h
[7] = Selectivity index, ratio of CC50 for human WI26VA4 cells to ratio of IC50 for antileishmanial activity against Leishmania braziliensis MHOM/BR/75/M2903 promastigote; assay type: toxicity; conditions: read-out: Ratio CC50/IC50
[8] = Selectivity index, ratio of CC50 for human WI26VA4 cells to ratio of IC50 for antileishmanial activity against Leishmania infantum MHOM/BR/74/PP75 promastigote; assay type: toxicity; conditions: read-out: Ratio CC50/IC50
Trypanosoma cruzi [9] = assay: Antitrypanosomal activity against Trypanosoma cruzi epimastigote assessed as parasite growth inhibition; assay type: functional, organism-based
Trypanosoma cruzi [10] = assay: Antitrypanosomal activity against Trypanosoma cruzi arequipa strain amastigotes assessed as parasite growth inhibition incubated for 48 hrs by resazurin staining based analysis; assay type: functional, organism-based
Trypanosoma cruzi [11] = assay: Antitrypanosomal activity against Trypanosoma cruzi arequipa strain trypomastigotes assessed as parasite growth inhibition incubated for 48 hrs by resazurin staining based analysis; assay type: functional, organism-based
Trypanosoma cruzi [12] = assay: Antitrypanosomal activity against Trypanosoma cruzi arequipa strain epimastigotes assessed as parasite growth inhibition incubated for 48 hrs by resazurin staining based analysis; assay type: functional, organism-based
Leishmania major = assay: Antileishmanial activity against Leishmania major promastigote assessed as inhibition of parasite growth; assay type: functional, organism-based
Leishmania amazonensis = assay: Antileishmanial activity against Leishmania amazonensis promastigotes assessed as inhibition of parasite growth; assay type: functional, organism-based
Trypanosoma cruzi [13] = assay: Antitrypanosomal activity against Trypanosoma cruzi epimastigote Dm28c strain assessed as parasite growth inhibition; assay type: functional, organism-based
[14] = Selectivity index, ratio of CC50 for cytotoxicity against mouse RAW264.7 cells to IC50 for antitrypanosomal activity against Trypanosoma cruzi epimastigote; assay type: toxicity, cell-based; conditions: read-out: Ratio CC50/IC50
Trypanosoma cruzi [15] = assay: Antitrypanosomal activity against Trypanosoma cruzi amastigote assessed as parasite growth inhibition; assay type: functional, organism-based
[16] = Selectivity index, ratio of CC50 for cytotoxicity against mouse RAW264.7 cells to IC50 for antitrypanosomal activity against Trypanosoma cruzi amastigote; assay type: toxicity, cell-based; conditions: read-out: Ratio CC50/IC50
Trypanosoma cruzi [17] = assay: Antitrypanosomal activity against bloodstream Trypanosoma cruzi Y strain trypomastigotes assessed as parasite growth inhibition incubated for 24 hrs by light microscopic analysis; assay type: functional, organism-based

Structure (SMILES): c1ccc(CSc2nc3ccccc3s2)cc1
- selectivity ratio [1]: > 2.68
- LC50 (Trypanosoma cruzi [2]): 336 µM
- selectivity ratio [3]: > 7.29
- LC50 (Trypanosoma cruzi [4]): 123 µM

Structure (SMILES): Cc1ccc([Te]Cc2ncc(-c3ccc(S(N)(=O)=O)cc3)[se]2)cc1
- IC50 (Leishmania infantum [5]): 0.34 µM

Structure (SMILES): O=C1NC(=O)/C(=C/c2cc(Cl)cc(Cl)c2Cl)S1
- IC50 (Leishmania infantum [6]): 30.4 µM
- IC50 (Leishmania braziliensis): 46.4 µM
- selectivity ratio [7]: 0.63
- selectivity ratio [8]: 0.96

Structure (SMILES): Fc1ccc(CSc2nc3ccccc3s2)cc1
- LC50 (Trypanosoma cruzi [2]): > 350 µM
- LC50 (Trypanosoma cruzi [4]): > 350 µM

- IC50 (Trypanosoma cruzi [9]): 83.1 µM
Structure (SMILES): NC(=S)N/C=N/c1c(C(F)(F)F)nn(-c2ccccc2)c1-c1ccccc1

- IC50 (Trypanosoma cruzi [9]): 29.7 µM
Structure (SMILES): COc1ccc(-c2c(/N=C/NC(N)=S)c(C(F)(F)F)nn2-c2ccccc2)cc1

Structure (SMILES): c1ccc2c(c1)nnn2C[Se][Se]Cn1nnc2ccccc21
- IC50 (Leishmania infantum [5]): 0.45 µM

Structure (SMILES): N#C[Se]Cc1ccccc1[N+](=O)[O-]
- IC50 (Trypanosoma cruzi [10]): 0.5 µM
- IC50 (Trypanosoma cruzi [11]): 1.3 µM
- IC50 (Trypanosoma cruzi [12]): 0.9 µM

Structure (SMILES): CSc1ccc(C[Se][Se]Cc2ccc(SC)cc2)cc1
- IC50 (Trypanosoma cruzi [10]): 1.2 µM
- IC50 (Trypanosoma cruzi [11]): 1.7 µM
- IC50 (Trypanosoma cruzi [12]): 1.8 µM

Structure (SMILES): FC(F)(F)c1ccc(C[Se][Se]Cc2ccc(C(F)(F)F)cc2)cc1
- IC50 (Trypanosoma cruzi [10]): 0.8 µM
- IC50 (Trypanosoma cruzi [11]): 1.5 µM
- IC50 (Trypanosoma cruzi [12]): 1.9 µM

Structure (SMILES): O=C1NC(=O)/C(=C/c2cc(Cl)cc(Br)c2O)S1
- IC50 (Leishmania infantum [6]): 35.9 µM
- IC50 (Leishmania braziliensis): 48.2 µM
- selectivity ratio [7]: 0.55
- selectivity ratio [8]: 0.74

Structure (SMILES): COc1ccc([Te]Cc2ccc(S(N)(=O)=O)cc2)cc1
- IC50 (Leishmania infantum [5]): 6.14 µM

Structure (SMILES): Oc1cccc(-c2nnc(-c3ccc4ncccc4c3)s2)c1O
- IC50 (Leishmania major): 0.04 µM

Structure (SMILES): Clc1ccc(CSc2nc3ccccc3s2)cc1
- selectivity ratio [1]: > 3.42
- LC50 (Trypanosoma cruzi [2]): 263 µM
- LC50 (Trypanosoma cruzi [4]): > 350 µM

Structure (SMILES): O=C(Nc1ccc([Se][Se]c2ccc(NC(=O)c3cccs3)cc2)cc1)c1cccs1
- IC50 (Trypanosoma cruzi [10]): 15.4 µM
- IC50 (Trypanosoma cruzi [11]): 12.7 µM

Structure (SMILES): CC1=CC[C@@H](C(C)(C)NC(=S)NN)CC1
- IC50 (Leishmania amazonensis): 3 µM

Structure (SMILES): CC1=CC[C@@H](C(C)(C)NC(=S)N/N=C/c2ccc([N+](=O)[O-])cc2)CC1
- IC50 (Leishmania amazonensis): 11.2 µM

- IC50 (Trypanosoma cruzi [13]): 3.98 µM
- IC50 (Trypanosoma cruzi [15]): 2.15 µM
Structure (SMILES): NS(=O)(=O)c1nnc(NC(=O)Cc2ccccc2Br)s1
- selectivity ratio [14]: 2
- selectivity ratio [16]: 5

Structure (SMILES): O=C1c2ccccc2C(=O)c2cc(C[Se][Se]Cc3ccc4c(c3)C(=O)c3ccccc3C4=O)ccc21
- IC50 (Leishmania infantum [5]): 0.68 µM

Structure (SMILES): O=S(=O)(Nc1ccc([Se][Se]c2ccc(NS(=O)(=O)c3ccc(C(F)(F)F)cc3)cc2)cc1)c1ccc(C(F)(F)F)cc1
- IC50 (Trypanosoma cruzi [10]): 2.3 µM
- IC50 (Trypanosoma cruzi [11]): 2 µM
- IC50 (Trypanosoma cruzi [12]): 2.7 µM

Structure (SMILES): O=P(Nc1ccc([Se][Se]c2ccc(NP(=O)(Oc3ccccc3)Oc3ccccc3)cc2)cc1)(Oc1ccccc1)Oc1ccccc1
- IC50 (Leishmania infantum [5]): 14.3 µM

Structure (SMILES): CCOP(=S)(Nc1ccc([Se][Se]c2ccc(NP(=S)(OCC)OCC)cc2)cc1)OCC
- IC50 (Leishmania infantum [5]): 0.79 µM

- IC50 (Trypanosoma cruzi [9]): 30.3 µM
Structure (SMILES): NC(=S)N/C=N/c1c(C(F)(F)F)nn(-c2ccccc2)c1-c1ccc(Br)cc1

- IC50 (Trypanosoma cruzi [13]): 6.24 µM
- IC50 (Trypanosoma cruzi [15]): 3.47 µM
Structure (SMILES): NS(=O)(=O)c1nnc(NC(=O)Cc2ccc(Cl)cc2)s1
- selectivity ratio [14]: 1
- selectivity ratio [16]: 1

Structure (SMILES): COc1ccc(CSc2nc3ccccc3s2)cc1
- selectivity ratio [1]: > 3.26
- LC50 (Trypanosoma cruzi [2]): 276 µM
- selectivity ratio [3]: > 2.92
- LC50 (Trypanosoma cruzi [4]): 308 µM

- IC50 (Trypanosoma cruzi [13]): 3.54 µM
- IC50 (Trypanosoma cruzi [15]): 2.83 µM
Structure (SMILES): NS(=O)(=O)c1ccc(NC(=O)Cc2ccc(Cl)cc2)c(F)c1
- selectivity ratio [14]: 2
- selectivity ratio [16]: 3

Structure (SMILES): NS(=O)(=O)c1ccc(-c2cnc(C[Se]c3ccccc3)[se]2)cc1
- IC50 (Leishmania infantum [5]): 4.11 µM

- IC50 (Trypanosoma cruzi [13]): 5.66 µM
- IC50 (Trypanosoma cruzi [15]): 2.27 µM
Structure (SMILES): NS(=O)(=O)c1ccc(NC(=O)Cc2ccccc2Br)c(F)c1
- selectivity ratio [14]: 1
- selectivity ratio [16]: 3

- IC50 (Trypanosoma cruzi [17]): 75.5 µM
Structure (SMILES): O=C1C(=O)c2ccccc2C2=C1CC(C[Se]c1cccc(C(F)(F)F)c1)O2 (configuration not stated)

Structure (SMILES): [Se]=C=NCCCCc1ccccc1 [PHENYLBUTYL ISOSELENOCYANATE]
- IC50 (Leishmania major): 7.2 µM
- IC50 (Leishmania amazonensis): 4.5 µM
